Results from patent US20260356851A1, “TRICYCLIC COMPOUNDS AND USES THEREOF” (HUTCHMED LIMITED, priority 2023, published 2026).
Like-named read-outs stand apart in the source and are kept apart here.

Experiments:
Assay type in all cases: cell-based
[1] = molecular target: T1, pERK1/2 (Thr202/Tyr204), NCI-1H358 (KRAS G12C) (Homo sapiens, UniProt P01116, G12C); assay: Assay of intracellular pERK1/2 (Thr202/Tyr204) phosphorylation in NCI-H358 cells (KRAS G12C)
T1 construct: pERK1/2 HTRF read-out
Procedure, shortened: (§1)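 HTRF detection of Thr202/Tyr204-phosphorylated ERK1/2 (665/615 nm ratio) in lysates from cells treated 2 days with serially 3-fold diluted compound.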

[2] = molecular target: T2, pERK1/2 (Thr202/Tyr204), PANC-1 (KRAS G121D) (Homo sapiens, UniProt P01116, G12D); assay: Assay of intracellular pERK1/2 (Thr202/Tyr204) phosphorylation in PANC-1 cells (KRAS G12D)
T2 construct: pERK1/2 HTRF read-out
Procedure, shortened: as §1

[3] = molecular target: T3, pERK1/2 (Thr202/Tyr204), NCI-1H441 (KRAS G12V) (Homo sapiens, UniProt P01116, G12V); assay: Assay of intracellular pERK1/2 (Thr202/Tyr204) phosphorylation in NCI-H441 cells (KRAS G12V)
T3 construct: pERK1/2 HTRF read-out
Procedure, shortened: as §1

[4] = pERK1/2, 2 days, read-out: NCI-H358 (KRAS G12C) IC50
[5] = pERK1/2, 2 days, read-out: PANC-1 (KRAS G12D) IC50
[6] = pERK1/2, 2 days, read-out: NCI-H441 (KRAS G12V) IC50

T3 sequence (P01116 1-188 isoform P01116-2 G12V): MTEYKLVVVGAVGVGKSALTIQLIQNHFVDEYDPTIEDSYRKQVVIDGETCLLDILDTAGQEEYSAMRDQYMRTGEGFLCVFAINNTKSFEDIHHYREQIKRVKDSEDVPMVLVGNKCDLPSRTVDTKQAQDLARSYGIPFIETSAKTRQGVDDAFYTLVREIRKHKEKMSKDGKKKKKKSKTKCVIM
T1 sequence (P01116 1-188 isoform P01116-2 G12C): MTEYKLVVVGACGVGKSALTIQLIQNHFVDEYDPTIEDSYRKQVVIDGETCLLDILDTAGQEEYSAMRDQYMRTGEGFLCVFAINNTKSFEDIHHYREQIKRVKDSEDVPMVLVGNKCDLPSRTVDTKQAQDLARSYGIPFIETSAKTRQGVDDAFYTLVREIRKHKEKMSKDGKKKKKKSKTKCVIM
T2 sequence (P01116 1-188 isoform P01116-2 G12D): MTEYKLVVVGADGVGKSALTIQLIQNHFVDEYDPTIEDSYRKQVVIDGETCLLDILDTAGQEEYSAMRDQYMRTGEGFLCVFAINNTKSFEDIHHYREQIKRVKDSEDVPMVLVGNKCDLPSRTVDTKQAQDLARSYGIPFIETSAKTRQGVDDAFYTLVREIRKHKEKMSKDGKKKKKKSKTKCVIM

SMILES	IC50 [1, 4]	IC50 [2, 5]	IC50 [3, 6]	IC50 ([1]; read-out: NCI-H358 (KRAS G12C) IC50, pERK1/2, 2 days)	IC50 ([2]; read-out: PANC-1 (KRAS G12D) IC50, pERK1/2, 2 days)	IC50 ([3]; read-out: NCI-H441 (KRAS G12V) IC50, pERK1/2, 2 days)
CC(c1cccnc1N)N1c2nc(OC[C@@]34CCCN3C[C@H](F)C4)nc3c(F)c(-c4cc(O)cc(Cl)c4C(F)(F)F)nc(c23)OC[C@@H]1C (stereo partly drawn) [Compound 315]	2 nM	6 nM	4 nM			
CC(c1cccnc1N)N1c2nc(OC[C@@]34CCCN3C[C@H](F)C4)nc3c(F)c(-c4cc(F)cc5c4C(F)(F)CC5)nc(c23)OC[C@@H]1C (stereo partly drawn) [Compound 371]	3 nM	57 nM	11 nM			
Cc1c(C(F)(F)F)c(-c2nc3c4c(nc(OC[C@@]56CCCN5C[C@H](F)C6)nc4c2F)N(C(C)c2cccnc2N)[C@@H](C)CO3)c2c(C)n[nH]c2c1F (stereo partly drawn) [Compound 379]	0.2 nM	0.1 nM	0.3 nM			
[2H]C1([2H])Oc2nc(-c3cc(N)c(F)c(Cl)c3C(F)(F)F)c(F)c3nc(OC[C@@H]4C[C@@H](F)CN4C)nc(c23)N(C(C)c2cccnc2N)C1([2H])[2H] (single isomer, unassigned) [Compound 209, 3-((R or S)-1-(5-(5-amino-3-chloro-4-fluoro-2-(trifluoromethyl)phenyl)-4-fluoro-2-(((2S,4R)-4-fluoro-1-methylpyrrolidin-2-yl)methoxy)-8,9-dihydro-10H-7-oxa-1,3,6,10-tetraazacyclohepta[de]naphthalen-10-yl-8,8,9,9-d4)ethyl)pyridin-2-amine]	13 nM	> 100 nM	45 nM			
CC(c1cccnc1N)N1c2nc(OC[C@@]34CCCN3C[C@H](F)C4)nc3c(F)c(-c4c(F)cc(F)c5sc(N)nc45)nc(c23)OC[C@@H]1C (stereo partly drawn) [Compound 333]	1 nM	6 nM	1 nM			
[2H]C1([2H])CC[C@@]2(COc3nc4c5c(nc(-c6cc(N)c(F)c(Cl)c6C(F)(F)F)c(F)c5n3)OC([2H])([2H])C([2H])([2H])N4C(C)c3ccc[n+]([O-])c3N)C[C@@H](F)CN12 (stereo partly drawn) [Compound 224]	> 100 nM	> 100 nM	> 100 nM			
Cc1ccnc(N)c1C(C)N1CCOc2nc(-c3cc(N)c(F)c(C)c3C(F)(F)F)c(F)c3nc(OC[C@@]45CCCN4C[C@H](F)C5)nc1c23 (single isomer, unassigned) [Compound 258, 3-((R or S)-1-(5-(5-amino-4-fluoro-3-methyl-2-(trifluoromethyl)phenyl)-4-fluoro-2-(((2R,7aS)-2-fluorotetrahydro-1H-pyrrolizin-7a(5H)-yl)methoxy)-8,9-dihydro-10H-7-oxa-1,3,6,10-tetraazacyclohepta[de]naphthalen-10-yl)ethyl)-4-methylpyridin-2-amine]	> 100 nM	> 100 nM	> 100 nM			
Cc1c(F)c(N)cc(-c2nc3c4c(nc(OC[C@@]56CCCN5CC(=C(F)F)C6)nc4c2F)N(C(C)c2cccnc2N)CCO3)c1C(F)(F)F (stereo partly drawn) [Compound 243]	0.2 nM	1 nM	0.5 nM			
Cc1cc(N)cc(-c2nc3c4c(nc(OC[C@@]56CCCN5C[C@H](F)C6)nc4c2F)N(C(C)c2cccnc2N)[C@@H](C)CO3)c1C(F)(F)F (single isomer, unassigned) [Compound 267]	0.3 nM	0.2 nM	0.6 nM			
CC(c1cccnc1N)N1c2nc(OC[C@@]34CCCN3C[C@H](F)C4)nc3cc(-c4c5ccccc5cc5[nH]nc(C6CC6)c45)nc(c23)OC[C@@H]1C (stereo partly drawn) [Compound 403]	112 nM	997 nM	308 nM			
CCc1c(F)ccc2cc(OC(=O)N3CCC3)cc(-c3nc4c5c(nc(OC[C@@]67CCCN6C[C@H](F)C7)nc5c3F)N(C(C)c3cccnc3N)[C@@H](C)CO4)c12 (stereo partly drawn) [Compound 304]				21 nM	55 nM	46 nM
[2H]C([2H])(Oc1nc2c3c(nc(-c4cc(N)ccc4C(F)(F)F)c(F)c3n1)OCCN2C(C)c1cccnc1N)[C@@H]1C[C@@H](F)CN1C([2H])([2H])[2H] (stereo partly drawn) [Compound 126]	7 nM	> 100 nM	31 nM			
C#Cc1c(F)ccc2cc(O)cc(-c3nc4c5c(nc(OC[C@@]67CCCN6C[C@H](F)C7)nc5c3F)N(C(C)c3cccnc3N)[C@@H](C)CO4)c12 (single isomer, unassigned) [Compound 274, 4-((S)-10-((R or S)-1-(2-aminopyridin-3-yl)ethyl)-4-fluoro-2-(((2R,7aS)-2-fluorotetrahydro-1H-pyrrolizin-7a(5H)-yl)methoxy)-9-methyl-9,10-dihydro-8H-7-oxa-1,3,6,10-tetraazacyclohepta[de]naphthalen-5-yl)-5-ethynyl-6-fluoronaphthalen-2-ol]	5 nM	13 nM	8 nM			
[2H]C1([2H])CC[C@@]2(C([2H])([2H])Oc3nc4c5c(nc(-c6cc(N)cc(Cl)c6C(F)(F)F)c(F)c5n3)OCCN4C(C)c3cccnc3N)C[C@@H](F)CN12 (stereo partly drawn) [Compound 113]	0.7 nM	2 nM	0.8 nM			
Cc1cc(Nc2nc3c4c(nc(OC[C@@]56CCCN5C[C@H](F)C6)nc4c2F)N(C(C)c2cccnc2N)CCO3)c(F)cc1C(F)(F)F (stereo partly drawn) [Compound 162]	> 100 nM	> 100 nM	> 100 nM			
CCC(c1cccnc1N)N1CCOc2nc(-c3cc(N)c(F)c(F)c3C(F)(F)F)c(F)c3nc(OC[C@@]45CCCN4C[C@H](F)C5)nc1c23 (single isomer, unassigned) [Compound 217, 3-((R or S)-1-(5-(5-amino-3,4-difluoro-2-(trifluoromethyl)phenyl)-4-fluoro-2-(((2R,7aS)-2-fluorotetrahydro-1H-pyrrolizin-7a(5H)-yl)methoxy)-8,9-dihydro-10H-7-oxa-1,3,6,10-tetraazacyclohepta[de]naphthalen-10-yl)propyl)pyridin-2-amine]	> 100 nM	> 100 nM	> 100 nM			
C[C@H](c1cccnc1N)N1c2nc(OC[C@@]34CCCN3C[C@H](F)C4)nc3c(F)c(-c4c5ccccc5cc5[nH]ncc45)nc(c23)O[C@@H]2CCC[C@@H]21 [Compound 399]	65 nM	403 nM	57 nM			
CC(c1cccnc1N)N1c2nc(OC[C@@]34CCCN3C[C@H](F)C4)nc3c(F)c(-c4cc(N)c(F)c(Cl)c4C(F)(F)F)nc(c23)OC[C@@H]1C (single isomer, unassigned) [Compound 272, 3-((R or S)-1-((S)-5-(5-amino-3-chloro-4-fluoro-2-(trifluoromethyl)phenyl)-4-fluoro-2-(((2R,7aS)-2-fluorotetrahydro-1H-pyrrolizin-7a(5H)-yl)methoxy)-9-methyl-8,9-dihydro-10H-7-oxa-1,3,6,10-tetraazacyclohepta[de]naphthalen-10-yl)ethyl)pyridin-2-amine]	57 nM	> 100 nM	> 100 nM			
CC(c1cccnc1N)N1CCOc2nc(-c3cc(N)c(F)c(Cl)c3C(F)(F)F)c(F)c3nc(OC[C@@H]4C[C@@H](F)CN4C)nc1c23 (stereo partly drawn) [Compound 205]	0.3 nM	11 nM	1 nM			
Cc1c(F)c(N)cc(-c2nc3c4c(nc(OC[C@@]56CCCN5C[C@H](F)C6)nc4c2F)N([C@H](C)c2cc(F)cnc2N)[C@@H](C)CO3)c1C(F)(F)F [Compound 365]	0.2 nM	1 nM	1 nM			
